Results taken from patent publication EP4707280A1, “1,4-CINEOLE DERIVATIVE AND INTERMEDIATE THEREOF, HERBICIDE CONTAINING SAID DERIVATIVE AS ACTIVE INGREDIENT, METHOD FOR USING HERBICIDE, AND METHOD FOR PREPARING AGROCHEMICAL COMPOSITION” (HOKKO CHEMICAL INDUSTRY CO., LTD., priority 2023, dated 2024).

Key:
Assay type in all cases: in vivo
[1] = tested on: Echinochloa crus-galli; assay: Test Example 4: herbicidal effect test by stem and leaf treatment in upland field; conditions: Echinochloa crus-galli; 120 g per 10 ares; sprayed seven days after sowing, upland soil; 14 days after application; read-out: weed inhibition rate
[2] = tested on: Scirpus juncoides; assay: Test Example 1: herbicidal effect test by soil application in paddy rice; conditions: Schoenoplectiella juncoides, soil, 336 h; 120 g active ingredient per 10 ares; applied immediately after sowing, flooded pots; 14 days after application; read-out: weed inhibition rate
How it was run: (§1)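 Pre-emergence paddy treatment: diluted emulsifiable concentrate applied by dropper at 120 g a.i./10 ares immediately after sowing. Seeds (30 per species, 0–1 cm deep) in fertilized, puddled paddy soil kept under ~3 cm flood in a glass greenhouse.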

[3] = tested on: Echinochloa crus-galli var. formosensis; assay: as above; conditions: Echinochloa crus-galli, soil, 336 h; 120 g active ingredient per 10 ares; applied immediately after sowing, flooded pots; 14 days after application; read-out: weed inhibition rate
How it was run: as §1

[4] = tested on: Monochoria vaginalis; assay: as above; conditions: Pontederia vaginalis, soil, 336 h; 120 g active ingredient per 10 ares; applied immediately after sowing, flooded pots; 14 days after application; read-out: weed inhibition rate
Protocol: Wagner pots with an area of […] were filled with paddy soil, followed by addition of water and incorporation of chemical fertilizer (N:P:K = 16:16:16), after which puddling was performed. After that, seeds of Echinochloa crus-galli var. formosensis, broad-leaved weeds (Lindernia pyxidaria and Monochoria vaginalis), and Scirpus juncoides were sown at a depth of 0 cm to 1 cm, 30 seeds each. Immediately after sowing, the pots were flooded and a water depth of approximately 3 cm was maintained. Subsequent management was conducted in a glass greenhouse. Immediately thereafter, an emulsifiable concentrate prepared according to Formulation Example 5 using the compound shown below was diluted with water, and a specified amount of the diluted solution was applied by dropper. The amount of the active ingredient to be applied was equivalent to 120 g per 10 ares.
The present test was conducted in duplicate for each chemical concentration group, and the weed inhibition rate (%) was determined 14 days after chemical application using the following formula (Math. 1). [formula]

[5] = tested on: Echinochloa crus-galli var. formosensis; assay: Test Example 2: herbicidal effect test by application during growth period of paddy rice; conditions: Echinochloa crus-galli; 120 g per 10 ares; applied seven days after sowing, flooded pots; 14 days after application; read-out: weed inhibition rate
How it was run: (§2)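 Herbicidal effect was scored 14 days after treatment, in duplicate per concentration. Weeds sown 0–1 cm deep in puddled, fertilized paddy soil under about 3 cm of standing water received a water-diluted emulsifiable concentrate by dropper 7 days post-sowing, at 120 g a.i. per 10 ares.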

[6] = tested on: Digitaria ciliaris; assay: Test Example 3: herbicidal effect test by soil application in upland field; conditions: Digitaria ciliaris, 120 g per 10 ares, sprayed one day after sowing, 14 days after application, read-out: weed inhibition rate
How it was run: (§3)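 Weed inhibition (%) was assessed 14 days after treatment, in duplicate per concentration group. Seeds had been mixed into the upper 1 cm of upland alluvial loam, and the soil surface was sprayed one day later with the diluted emulsifiable concentrate at 120 g active ingredient per 10 ares.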

[7] = tested on: Echinochloa crus-galli; assay: as above; conditions: Echinochloa crus-galli, 120 g per 10 ares, sprayed one day after sowing, 14 days after application, read-out: weed inhibition rate
How it was run: as §3

[8] = tested on: Echinochloa crus-galli var. formosensis; assay: Test Example 6: herbicidal effect test by application during growth period of paddy rice (low dose); conditions: Echinochloa crus-galli; 7.5 g per 10 ares; applied seven days after sowing, flooded pots; 14 days after application; read-out: weed inhibition rate
How it was run: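 Emulsifiable concentrate, water-diluted, dropped onto flooded paddy pots 7 days post-sowing at 7.5 g active ingredient/10 a. Greenhouse-grown weeds; percent inhibition scored at day 14 after treatment.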

[9] = tested on: Digitaria ciliaris; assay: Test Example 7: herbicidal effect test by soil application in upland field (low dose); conditions: Digitaria ciliaris, 7.5 g per 10 ares, sprayed one day after sowing, 14 days after application, read-out: weed inhibition rate
How it was run: (§4)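 Pre-emergence soil treatment: 7.5 g a.i. per 10 a applied as water-diluted emulsifiable concentrate (100 L/10 a) to soil surface one day post-sowing in alluvial loam. Inhibition (%) assessed at 14 days, duplicate pots per concentration.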

[10] = tested on: Echinochloa crus-galli; assay: as above; conditions: Echinochloa crus-galli, 7.5 g per 10 ares, sprayed one day after sowing, 14 days after application, read-out: weed inhibition rate
How it was run: as §4

[11] = tested on: Digitaria ciliaris; assay: Test Example 4: herbicidal effect test by stem and leaf treatment in upland field; conditions: Digitaria ciliaris; 120 g per 10 ares; sprayed seven days after sowing, upland soil; 14 days after application; read-out: weed inhibition rate
[12] = tested on: Echinochloa crus-galli var. formosensis; assay: Test Example 5: herbicidal effect test by soil application in paddy rice (low dose); conditions: Echinochloa crus-galli, soil, 336 h; 7.5 g per 10 ares; applied immediately after sowing, flooded pots; 14 days after application; read-out: weed inhibition rate
How it was run: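 Dose of 7.5 g a.i. per 10 ares, applied by dropper as diluted emulsifiable concentrate to flooded (~3 cm) paddy pots immediately after sowing seeds at 0–1 cm. Kept in a glass greenhouse; duplicate pots rated at 14 days post-application.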

[13] = tested on: Scirpus juncoides; assay: Test Example 2: herbicidal effect test by application during growth period of paddy rice; conditions: Schoenoplectiella juncoides; 120 g per 10 ares; applied seven days after sowing, flooded pots; 14 days after application; read-out: weed inhibition rate
How it was run: as §2

[14] = tested on: Monochoria vaginalis; assay: as above; conditions: Pontederia vaginalis; 120 g per 10 ares; applied seven days after sowing, flooded pots; 14 days after application; read-out: weed inhibition rate
How it was run: as §2

[15] = tested on: Digitaria ciliaris; assay: Test Example 8: herbicidal effect test by stem and leaf treatment in upland field (low dose); conditions: Digitaria ciliaris; 7.5 g per 10 ares; sprayed seven days after sowing, upland soil; 14 days after application; read-out: weed inhibition rate

CC(C)[C@]12C[C@@H](OCc3ccccc3F)[C@](C)(CC13OCCO3)O2 [1-936, (1R,4S,5R)-5-((2-fluorobenzyl)oxy)-1-isopropyl-4-methyl-7-oxaspiro[bicyclo[2.2.1]heptane-2,2'-[1,3]dioxolane]]
≥ 80%: inhibition at 1200 g/ha [1] | pest or weed control at 1200 g/ha [2] | pest or weed control at 1200 g/ha [3] | pest or weed control at 1200 g/ha [4] | inhibition at 1200 g/ha [5] | inhibition at 1200 g/ha [6] | inhibition at 1200 g/ha [7]

CC(C)[C@]12C[C@@H](OCc3ccccc3C#N)[C@](C)(CC1=O)O2 [2-354, 2-((((1S,2R,4R)-4-isopropyl-1-methyl-5-oxo-7-oxabicyclo[2.2.1]heptan-2-yl)oxy)methyl)benzonitrile]
≥ 80%: inhibition at 1200 g/ha [1] | inhibition at 75 g/ha [8] | pest or weed control at 1200 g/ha [2] | pest or weed control at 1200 g/ha [3] | inhibition at 75 g/ha [9] | inhibition at 75 g/ha [10] | inhibition at 1200 g/ha [11] | pest or weed control at 1200 g/ha [4] | inhibition at 75 g/ha [12] | inhibition at 1200 g/ha [13] | inhibition at 1200 g/ha [5] | inhibition at 1200 g/ha [6] | inhibition at 1200 g/ha [7]

Cc1ccccc1CO[C@@H]1C[C@]2(C(C)C)O[C@@]1(C)C=C2c1ccccc1 [3-175, (1R,4S,5R)-1-isopropyl-4-methyl-5-((2-methylbenzyl)oxy)-2-phenyl-7-oxabicyclo[2.2.1]hept-2-ene]
≥ 80%: inhibition at 1200 g/ha [1] | pest or weed control at 1200 g/ha [3] | inhibition at 1200 g/ha [11] | pest or weed control at 1200 g/ha [4] | inhibition at 1200 g/ha [5] | inhibition at 1200 g/ha [14] | inhibition at 1200 g/ha [6] | inhibition at 1200 g/ha [7]

CC(C)[C@]12C[C@@H](OCc3ccccc3F)[C@](C)(CC1C1CCCC1)O2 (stereo partly drawn) [1-920, (1R,4S,5R)-2-cyclopentyl-5-[(2-fluorobenzyl)oxy]-1-isopropyl-4-methyl-7-oxabicyclo[2.2.1]heptane]
≥ 80%: inhibition at 1200 g/ha [1] | inhibition at 75 g/ha [8] | pest or weed control at 1200 g/ha [2] | pest or weed control at 1200 g/ha [3] | inhibition at 1200 g/ha [11] | pest or weed control at 1200 g/ha [4] | inhibition at 75 g/ha [12] | inhibition at 1200 g/ha [13] | inhibition at 1200 g/ha [5] | inhibition at 1200 g/ha [14]

CC(C)[C@]12C[C@@H](OCc3ccccc3F)[C@](C)(C=C1c1ccccc1)O2 [3-177, (1R,4S,5R)-5-((2-fluorobenzyl)oxy)-1-isopropyl-4-methyl-2-phenyl-7-oxabicyclo[2.2.1]hept-2-ene]
≥ 80%: inhibition at 1200 g/ha [1] | inhibition at 75 g/ha [8] | pest or weed control at 1200 g/ha [2] | pest or weed control at 1200 g/ha [3] | inhibition at 1200 g/ha [11] | pest or weed control at 1200 g/ha [4] | inhibition at 1200 g/ha [13] | inhibition at 1200 g/ha [5] | inhibition at 1200 g/ha [14] | inhibition at 1200 g/ha [6] | inhibition at 1200 g/ha [7]

CCC[C@@H]1C[C@]2(C)O[C@@]1(C(C)C)C[C@H]2OCc1ccccc1F [1-914, (1S,2R,4R,5R)-2-[(2-fluorophenyl)methoxy]-1-methyl-4-isopropyl-5-propyl-7-oxabicyclo[2.2.1]heptane]
≥ 80%: inhibition at 1200 g/ha [1] | inhibition at 75 g/ha [8] | pest or weed control at 1200 g/ha [2] | pest or weed control at 1200 g/ha [3] | inhibition at 1200 g/ha [11] | pest or weed control at 1200 g/ha [4] | inhibition at 75 g/ha [12] | inhibition at 1200 g/ha [13] | inhibition at 1200 g/ha [5] | inhibition at 1200 g/ha [14] | inhibition at 1200 g/ha [6] | inhibition at 1200 g/ha [7]

CC(C)[C@]12C[C@@H](OCc3ccccc3F)[C@](C)(CC1CCc1ccccc1)O2 (stereo partly drawn) [1-929, (1S,2R,4R)-2-((2-fluorobenzyl)oxy)-4-isopropyl-1-methyl-5-phenethyl-7-oxabicyclo[2.2.1]heptane]
≥ 80%: inhibition at 1200 g/ha [1] | inhibition at 75 g/ha [8] | pest or weed control at 1200 g/ha [2] | pest or weed control at 1200 g/ha [3] | inhibition at 75 g/ha [15] | inhibition at 1200 g/ha [11] | pest or weed control at 1200 g/ha [4] | inhibition at 75 g/ha [12] | inhibition at 1200 g/ha [5] | inhibition at 1200 g/ha [14] | inhibition at 1200 g/ha [6] | inhibition at 1200 g/ha [7]

Cc1ccccc1CO[C@H]1C[C@]2(C)O[C@@]1(C(C)C)C[C@H]2OCc1ccccc1C [1-597, (1S,2R,4R,5S)-1-methyl-2,5-bis[(2-methylphenyl)methoxy]-4-isopropyl-7-oxabicyclo[2.2.1]heptane]
≥ 80%: inhibition at 1200 g/ha [1] | pest or weed control at 1200 g/ha [2] | pest or weed control at 1200 g/ha [3] | inhibition at 1200 g/ha [11] | pest or weed control at 1200 g/ha [4] | inhibition at 1200 g/ha [13] | inhibition at 1200 g/ha [5] | inhibition at 1200 g/ha [14]

CC(C)[C@]12C[C@@H](OCc3ccccc3)[C@](C)(CC1=O)O2 [2-1, (1R,4S,5R)-5-(benzyloxy)-1-isopropyl-4-methyl-7-oxabicyclo[2.2.1]heptan-2-one]
≥ 80%: inhibition at 1200 g/ha [1] | pest or weed control at 1200 g/ha [3] | inhibition at 1200 g/ha [11] | pest or weed control at 1200 g/ha [4] | inhibition at 1200 g/ha [5] | inhibition at 1200 g/ha [14] | inhibition at 1200 g/ha [6] | inhibition at 1200 g/ha [7]
